From article PMC7646200 (Xenobiotica; the fate of foreign compounds in biological …, 2020)

What was measured:
in vitro [1] = settings: female, Dutch belted, rabbit, pH 7.4
mouse liver cytosol = assay: Sulfonation of 7-hydroxycoumarin derivatives by mouse liver cytosol; settings: for sulfonation rate: 10 μM substrate; for Vmax: mouse liver cytosol, value (95 % confidence interval)
in vitro [2] = settings: female, sheep, pH 7.4
rat liver cytosol = assay: Sulfonation of 7-hydroxycoumarin derivatives by rat liver cytosol; settings: rat liver cytosol; value (95 % confidence interval)
sheep liver cytosol = assay: Sulfonation of 7-hydroxycoumarin derivatives by sheep liver cytosol; settings: sheep liver cytosol; value (95 % confidence interval)
in vitro [3] = settings: male, human, pH 7.4
dog liver cytosol = assay: Sulfonation of 7-hydroxycoumarin derivatives by dog liver cytosol; settings: dog liver cytosol; for intrinsic clearance (Vmax/Km): rank among species; for Vmax: value (95 % confidence interval)
rabbit liver cytosol = assay: Sulfonation of 7-hydroxycoumarin derivatives by rabbit liver cytosol; settings: rabbit liver cytosol; value (95 % confidence interval)
in vitro [4] = settings: female, pig, pH 7.4
in vitro [5] = settings: DBA/2N/Kuo, mouse, pH 7.4
pig liver cytosol = assay: Sulfonation of 7-hydroxycoumarin derivatives by pig liver cytosol; settings: pig liver cytosol; value (95 % confidence interval)
in vitro [6] = settings: male, Wistar, rat, pH 7.4
human liver cytosol = assay: Sulfonation of 7-hydroxycoumarin derivatives by human liver cytosol; settings: human liver cytosol; value (95 % confidence interval)
in vitro [7] = settings: both, Beagle, dog, pH 7.4

## Cc1c(C)c2ccc(O)cc2oc1=O [compound 4, 3,4-dimethyl-7-hydroxycoumarin]
In vitro [1]
  Km: 0.65 µM
Mouse liver cytosol; female mouse liver cytosol
  sulfonation rate: Slow
Mouse liver cytosol; male mouse liver cytosol
  sulfonation rate: Slow
Mouse liver cytosol
  Vmax: 17 (14–20) nmol/(min * g protein)
In vitro [2]
  Km: 0.46 µM
Rat liver cytosol
  Vmax: 380 (140–620) nmol/(min * g protein)
Sheep liver cytosol
  Vmax: 300 (230–370) nmol/(min * g protein)
In vitro [3]
  Km: 24 µM
Dog liver cytosol
  intrinsic clearance (Vmax/Km): highest
  Vmax: 330 (250–420) nmol/(min * g protein)
Rabbit liver cytosol
  Vmax: 13 (0–28) nmol/(min * g protein)
In vitro [4]
  Km: 6.4 µM
In vitro [5]
  Km: 0.11 µM
Pig liver cytosol
  Vmax: 67 (18–120) nmol/(min * g protein)
In vitro [6]
  Km: 1.1 µM
Human liver cytosol
  Vmax: 210 (0–1300) nmol/(min * g protein)
In vitro [7]
  Km: 0.62 µM

## COc1ccc(-c2cc3ccc(O)cc3oc2=O)cc1 [compound 11, 3-(4-methoxyphenyl)-7-hydroxycoumarin]
In vitro [1]
  Km: 3.4 µM
Mouse liver cytosol
  Vmax: 100 (84–150) nmol/(min * g protein)
In vitro [2]
  Km: 9.8 µM
Rat liver cytosol
  Vmax: 210 (190–260) nmol/(min * g protein)
Sheep liver cytosol
  Vmax: 410 (190–620) nmol/(min * g protein)
In vitro [3]
  Km: 0.11 µM
Dog liver cytosol
  intrinsic clearance (Vmax/Km): highest
  Vmax: 300 (150–710) nmol/(min * g protein)
Rabbit liver cytosol
  Vmax: 190 (100–260) nmol/(min * g protein)
In vitro [4]
  Km: 1.3 µM
In vitro [5]
  Km: 1.2 µM
Pig liver cytosol
  Vmax: 5.5 (3.3–7.8) nmol/(min * g protein)
In vitro [6]
  Km: 0.57 µM
Human liver cytosol
  Vmax: 18 (12–23) nmol/(min * g protein)
In vitro [7]
  Km: 0.22 µM
